# Data: publication PMC10874388, “Cyclic peptides discriminate BCL-2 and its clinical mutants from BCL-XL by engaging a single-residue discrepancy” (Nature Communications, 2024)
# Values joined by “and” are separate entries in the source; they are usually repeats but may differ in a detail not shown here. Equal values may be shown once.
# Tests used:
# Assay type in all cases: cell-based
# [1] = system: Daudi cells; assay: Cell viability assay (CellTiter-Glo), Daudi; conditions: Daudi; for inhibition relative to 0 uM control, replicates / raw viability signal, replicates: listed as ABT199
# How it was run: (§1)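 Compounds added in serum-free medium for 4 h (RS4:11: 6 h), then FBS brought to 10% and incubation continued to 24 h or 48 h total at 37 °C, 5% CO2. Viability by CellTiter-Glo 2.0 luminescence; IC50 calculated.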
# [2] = system: Jurkat cells; assay: Cell viability assay (CellTiter-Glo), Jurkat; conditions: for inhibition relative to 0 uM control, replicates / raw viability signal, replicates: listed as ABT199
# How it was run: as §1
# [3] = system: A549 cells (control); assay: Cell viability assay (CellTiter-Glo), normal A549 (control); conditions: for luminescence reading, everage: mean of 6 wells
# Protocol: The cell lines Jurkat (TIB-152), El4 (TIB-39), Daudi (ccl-213), RS4:11 (crl-1873), A549 (ccl-185), HepG2 (hb-8065) and PANC-1 (crl-1469) were purchased from ATCC (American Type Culture Collection), and MGC-803 (C6582) was purchased from Beyotime (https://www.beyotime.com/product/C6582.htm). […] Daudi and RS4:11 cells were cultured in RPMI-1640 medium (HyClone, SH30809.01) and 10% FBS (Gibco, 10099-141), whereas HepG2, MGC-803 and PANC-1 cells were cultured in MDEM (HyClone, SH30243.01). Cells were maintained at 37 °C under a humidified, 5% (v/v) CO2-containing atmosphere.
# Cell viability was measured using CellTiter-Glo® 2.0 Reagent (Promega, G9242). […] After different inhibitors were added into serum-free medium and cultured for 4 h (RS4:11 for 6 h), FBS were supplemented to 10% and then incubated totally for 24 h or 48 h. Finally, the IC50 values were calculated based on measurements using a microplate reader (Thermo, Varioskan LUX). Statistical analysis was performed using software GraphPad Prism 7.0.
# [4] = control A549, ABT-199 0.390625 uM
# [5] = control A549, ABT-199 0.78125 uM
# [6] = control A549, ABT-199 1.5625 uM
smiles,measurement,setting,value
CC1(C)CCC(CN2CCN(c3ccc(C(=O)NS(=O)(=O)c4ccc(NCC5CCOCC5)c([N+](=O)[O-])c4)c(Oc4cnc5[nH]ccc5c4)c3)CC2)=C(c2ccc(Cl)cc2)C1 [venetoclax],"inhibition relative to 0 uM control, replicates",[1]; 6.25 uM,29% and 42% and 9% and 30% and 46% and 26%
same,"raw viability signal, replicates",[1]; 6.25 uM,1056 and 861.7 and 1353 and 1036 and 800.8 and 1094
same,"inhibition relative to 0 uM control, replicates",[1]; 12.5 uM,77% and 57% and 48% and 71% and 73% and 72%
same,"raw viability signal, replicates",[1]; 12.5 uM,335.5 and 640.9 and 766.9 and 436.4 and 400.1 and 410.0
same,"inhibition relative to 0 uM control, replicates",[1]; 25 uM,93% (2×) and 70% and 85% and 88% and 97%
same,"raw viability signal, replicates",[1]; 25 uM,106.6 and 104.3 and 439.1 and 228.2 and 183.6 and 51.32
same,IC50,"[1]; Homo sapiens, 48 h, 48 h treatment, CellTiter-Glo",9.12 µM
same,"inhibition relative to 0 uM control, replicates",[2]; 0.09375 uM,3.52% and 1.46% and 6% and 5% (2×) and 2.56%
same,"raw viability signal, replicates",[2]; 0.09375 uM,1920000 and 1961000 and 1868000 and 1890000 and 1939000 and 1891000
same,"inhibition relative to 0 uM control, replicates",[2]; 0.1875 uM,17% and 21% (2×) and 20% (2×)
same,"raw viability signal, replicates",[2]; 0.1875 uM,1613000 and 1643000 and 1579000 and 1582000 and 1598000 and 1590000
same,"inhibition relative to 0 uM control, replicates",[2]; 0.375 uM,36% and 31% and 32% and 27% and 22% and 17%
same,"raw viability signal, replicates",[2]; 0.375 uM,1276000 and 1374000 and 1347000 and 1456000 and 1547000 and 1657000
same,"inhibition relative to 0 uM control, replicates",[2]; 0.75 uM,38% and 41% and 36% and 33% and 32%
same,"raw viability signal, replicates",[2]; 0.75 uM,1124000 and 1225000 and 1165000 and 1278000 and 1326000 and 1356000
same,"inhibition relative to 0 uM control, replicates",[2]; 1.5 uM,52% and 54% (2×) and 53% and 47%
same,"raw viability signal, replicates",[2]; 1.5 uM,903200 and 948100 and 908900 and 906300 and 926500 and 1061000
same,"inhibition relative to 0 uM control, replicates",[2]; 3 uM,86% (3×) and 87% (2×)
same,"raw viability signal, replicates",[2]; 3 uM,248500 and 275900 and 263600 and 270200 and 263000 and 279700
same,inhibition at 0.1875 µM,"[2]; Homo sapiens, 0.1875 uM, read-out: inhibition relative to 0 uM control, replicates",19%
same,inhibition at 0.75 µM,"[2]; Homo sapiens, 0.75 uM, read-out: inhibition relative to 0 uM control, replicates",44%
same,inhibition at 1.5 µM,"[2]; Homo sapiens, 1.5 uM, read-out: inhibition relative to 0 uM control, replicates",55%
same,inhibition at 3 µM,"[2]; Homo sapiens, 3 uM, read-out: inhibition relative to 0 uM control, replicates",88%
same,IC50,"[2]; Homo sapiens, 48 h treatment, CellTiter-Glo",1.2 ± 0.2 µM
same,average (raw viability reading),"[3]; A549, ABT199 0.3125 uM",403300
same,inhibition rate,"[3]; A549, ABT199 0.3125 uM, fraction, replicates",0.1384 and 0.2199 and 0.2562 and 0.2483 and 0.2515 and 0.3247
same,raw viability reading,"[3]; A549, ABT199 0.3125 uM, replicates",394600 and 398800 and 397100 and 358300 and 457100 and 413900
same,average (raw viability reading),"[3]; A549, ABT199 0.625 uM",437733
same,inhibition rate,"[3]; A549, ABT199 0.625 uM, fraction, replicates",0.1102 and 0.1614 and 0.1995 and 0.1861 and 0.1882 and 0.2042
same,raw viability reading,"[3]; A549, ABT199 0.625 uM, replicates",424700 and 431800 and 430700 and 422200 and 472100 and 444900
same,average (raw viability reading),"[3]; A549, ABT199 1.25 uM",415750
same,inhibition rate,"[3]; A549, ABT199 1.25 uM, fraction, replicates",0.1437 and 0.2152 and 0.2434 and 0.2293 and 0.2263 and 0.2404
same,raw viability reading,"[3]; A549, ABT199 1.25 uM, replicates",401400 and 408900 and 410500 and 403000 and 454300 and 416400
same,average (raw viability reading),"[3]; A549, ABT199 2.5 uM",279550
same,inhibition rate,"[3]; A549, ABT199 2.5 uM, fraction, replicates",0.4238 and 0.4647 and 0.4862 and 0.4847 and 0.4854 and 0.4937
same,raw viability reading,"[3]; A549, ABT199 2.5 uM, replicates",272600 and 273400 and 273000 and 268600 and 305700 and 284000
same,average (raw viability reading),"[3]; A549, ABT199 5 uM",231967
same,inhibition rate,"[3]; A549, ABT199 5 uM, fraction, replicates",0.5341 and 0.5546 and 0.5723 and 0.5614 and 0.5684 and 0.5859
same,raw viability reading,"[3]; A549, ABT199 5 uM, replicates",226900 and 232700 and 229000 and 219700 and 247200 and 236300
same,average (raw viability reading),"[3]; A549, ABT199 10 uM",181100
same,inhibition rate,"[3]; A549, ABT199 10 uM, fraction, replicates",0.6325 and 0.6605 and 0.666 and 0.6628 and 0.6649 and 0.6653
same,raw viability reading,"[3]; A549, ABT199 10 uM, replicates",177200 and 178900 and 177800 and 177600 and 195000 and 180100
same,average (raw viability reading),"[3]; A549, ABT199 20 uM",174683
same,inhibition rate,"[3]; A549, ABT199 20 uM, fraction, replicates",0.6679 and 0.6686 and 0.6762 and 0.6713 and 0.6664 and 0.6741
same,raw viability reading,"[3]; A549, ABT199 20 uM, replicates",171800 and 174400 and 177000 and 172900 and 176200 and 175800
same,inhibition at 0.390625 µM,"[3]; Homo sapiens, A549, control A549, ABT-199 0.390625 uM, replicate wells, read-out: inhibition rate",26%
same,inhibition at 0.78125 µM,"[3]; Homo sapiens, A549, control A549, ABT-199 0.78125 uM, replicate wells, read-out: inhibition rate",33%
same,inhibition at 1.5625 µM,"[3]; Homo sapiens, A549, control A549, ABT-199 1.5625 uM, replicate wells, read-out: inhibition rate",61%
same,inhibition at 3.125 µM,"[3]; Homo sapiens, A549, control A549, ABT-199 3.125 uM, replicate wells, read-out: inhibition rate",75%
same,inhibition at 6.25 µM,"[3]; Homo sapiens, A549, control A549, ABT-199 6.25 uM, replicate wells, read-out: inhibition rate",76%
same,inhibition at 12.5 µM,"[3]; Homo sapiens, A549, control A549, ABT-199 12.5 uM, replicate wells, read-out: inhibition rate",81%
same,inhibition at 25 µM,"[3]; Homo sapiens, A549, control A549, ABT-199 25 uM, replicate wells, read-out: inhibition rate",87%
same,inhibition at 50 µM,"[3]; Homo sapiens, A549, control A549, ABT-199 50 uM, replicate wells, read-out: inhibition rate",93%
same,inhibition at 100 µM,"[3]; Homo sapiens, A549, control A549, ABT-199 100 uM, replicate wells, read-out: inhibition rate",98%
same,inhibition at 200 µM,"[3]; Homo sapiens, A549, control A549, ABT-199 200 uM, replicate wells, read-out: inhibition rate",99%
same,IC50,"[3]; Homo sapiens, A549, 48 h, CellTiter-Glo, n = 6, read-out: IC50 A549 control (original cells)",1.1 ± 0.2 µM
same,"luminescence reading (raw, replicate wells)",[3]; [4],589100 and 474500 and 578500 and 498700 and 513300 and 511200
same,"luminescence reading, everage",[3]; [4],527550
same,inhibition rate,"[3]; control A549, ABT-199 0.390625 uM, replicate wells",40% and 27% and 37% and 35% and 36%
same,"luminescence reading (raw, replicate wells)",[3]; [5],528700 and 466700 and 517300 and 470700 and 495500 and 475500
same,"luminescence reading, everage",[3]; [5],492400
same,inhibition rate,"[3]; control A549, ABT-199 0.78125 uM, replicate wells",41% and 35% and 38% and 40%
same,"luminescence reading (raw, replicate wells)",[3]; [6],312000 and 314300 and 298800 and 314500 and 309000 and 290800
same,"luminescence reading, everage",[3]; [6],306567
same,inhibition rate,"[3]; control A549, ABT-199 1.5625 uM, replicate wells",60% and 62% and 63%
same,"luminescence reading (raw, replicate wells)","[3]; control A549, ABT-199 3.125 uM",198800 and 204700 and 191700 and 191900 and 189900 and 188800
same,"luminescence reading, everage","[3]; control A549, ABT-199 3.125 uM",194300
same,inhibition rate,"[3]; control A549, ABT-199 3.125 uM, replicate wells",74%
same,"luminescence reading (raw, replicate wells)","[3]; control A549, ABT-199 6.25 uM",186800 and 193000 and 186700 and 177700 and 179700 and 186500
same,"luminescence reading, everage","[3]; control A549, ABT-199 6.25 uM",185067
same,inhibition rate,"[3]; control A549, ABT-199 6.25 uM, replicate wells",78% and 77%
same,"luminescence reading (raw, replicate wells)","[3]; control A549, ABT-199 12.5 uM",154400 and 153500 and 158000 and 148200 and 149400 and 149600
same,"luminescence reading, everage","[3]; control A549, ABT-199 12.5 uM",152183
same,inhibition rate,"[3]; control A549, ABT-199 12.5 uM, replicate wells",80%
same,"luminescence reading (raw, replicate wells)","[3]; control A549, ABT-199 25 uM",102900 and 103500 and 106000 and 102100 and 105400 and 102800
same,"luminescence reading, everage","[3]; control A549, ABT-199 25 uM",103783
same,"luminescence reading (raw, replicate wells)","[3]; control A549, ABT-199 50 uM",55930 and 54730 and 51960 and 49990 and 56070 and 56150
same,"luminescence reading, everage","[3]; control A549, ABT-199 50 uM",54138
same,inhibition rate,"[3]; control A549, ABT-199 50 uM, replicate wells",94%
same,"luminescence reading (raw, replicate wells)","[3]; control A549, ABT-199 100 uM",16550 and 16810 and 16440 and 16110 and 17860 and 16240
same,"luminescence reading, everage","[3]; control A549, ABT-199 100 uM",16668
same,"luminescence reading (raw, replicate wells)","[3]; control A549, ABT-199 200 uM",6435 and 6601 and 7137 and 6682 and 6762 and 7490
same,"luminescence reading, everage","[3]; control A549, ABT-199 200 uM",6851
